Source: patent US12281329B2, “Compositions and methods for immune cell modulation in adoptive immunotherapies” (Fate Therapeutics, Inc., priority 2016, dated 2025)
Where a name gives a salt, the structure may show the parent alone.

Columns and labels:
T cells = assay: In vitro T cell culture compound screen, flow cytometry for CCR7+CD62L+ cells; assay type: cell-based, human; conditions: for CD4 Hit / CD8 Hit: 10 μM, about 6 days, anti-CD3/anti-CD28 beads, viability and cell number Z-score > −1; for CD4 Hit: hit: Z-score > +2 for percent or relative number CCR7+CD62L+ in viable CD4+; for CD8 Hit: hit: Z-score > +2 for percent or relative number CCR7+CD62L+ in viable CD8+
Description: In Vitro T Cell Culture. Fresh leukopaks (AllCells, Alameda, CA) were obtained from healthy donors, from which T cells were negatively selected using the EasySep Human T cell Enrichment Kit (Stem Cell Technologies, Vancouver, Canada). The freshly isolated T cells were aliquoted and cryopreserved. On the day the screens were initiated, T cells were thawed and washed into X-Vivo 15 with 5% human AB serum, IL-2, pen/strep, and additional supplements. Cells were dispensed into flat-bottom 384-well plates at 5×10^5 cells/ml with anti-CD3/Anti-CD28 dynabeads (ThermoFisher, Waltham, MA) at a 3:1 bead-to-cell ratio. Individual compounds were added at a final concentration of 10 μM to each well from column 3 to column 22 of each plate. Positive and negative controls were added to additional wells. Cells were incubated for about 6 days at 37 degrees with 5% CO2.
Flow Cytometry. On Day 6 of culture, cells were stained with a fixable viability marker and fluorophore-conjugated antibodies: CD3, CD4, CD8, CD45RA, CD45RO, CD62L, CCR7, CD27, and CD122 (BD Biosciences, San Jose, CA; and BioLegend, San Diego, CA). Fluorescent absolute counting beads (Spherotech, Lake Forest, IL) were added just prior to acquisition. Data acquisition was performed on a BD Fortessa X-20 (BD Biosciences) and data were analyzed using Treestar software (FlowJo, Ashland, OR) and Spotfire (Tibco, Boston, MA).
These cells are characterized by expression of CCR7 and CD62L. Therefore, cells co-expressing both of these identifying markers were evaluated. Within the viable CD4+ population and viable CD8+ population, the percent of cells co-expressing CCR7 and CD62L was determined. The expression of either CD62L or CCR7 on T cells, as indicative of the desired T cell subsets, have been described as having favorable functional characteristics for CAR-T cell therapy, and potentially other adoptive T cell therapies.
The number of events in each of these gates relative to the number of absolute counting beads in each sample was calculated, defining a relative measure of the absolute number of naïve, stem cell memory, or central memory T cells within the CD4+ and/or CD8+ populations. A z-Score relative to the screened compound samples within each 384-well plate was calculated for each of these four values: 1) percent CCR7+CD62L+ in CD4+, 2) percent CCR7+CD62L+ in CD8+, 3) absolute relative number of CCR7+CD62L+ in CD4+, and 4) absolute relative number of CCR7+CD62L+ in CD8+(FIGS. 1A and 1B). Z-scores were also calculated for the percent viability of all cells within each sample and the relative absolute number of cells within each sample. A “Z-Score” is a statistical measurement of a score's relationship to the mean in a group of scores. AZ-score of 0 means the score is the same as the mean. AZ-score can also be positive or negative, indicating whether it is above or below the mean and by how many standard deviations.

CD20+ Raji cells = assay: NK cell cytotoxicity assay, Raji target cells; assay type: cell-based, human; conditions: 4 hours; NK cells overnight IL-15 only or 7 days IL15 + GSK3i
Procedure: (§1) NK Cell Cytotoxicity Assay: Cytotoxicity was determined using a flow cytometry based method based on a previously published method (Kim, et al. J Immunol Methods. 2007 Aug. 31; 325(1-2): 51-66). NK cells were co-cultured with e450-proliferation dye-labelled targets for 4 hours. CellEvent™ Caspase-3/7 Green Flow Cytometry Assay Kit (Lifer Technologies) was used to assay for cell death among target cells, and samples were read on a BD LSRFortessa cytometer. Killing of SKOV-3 targets was quantified using the Incucyte Zoom instrument. SKOV-3 cells were transiently transduced with NucLight-Red BacMam reagent (Essen Biosciences) and co-cultured with the indicated NK cell populations for 74 hours, with images taken on two hour intervals. Caspase 3/7 activity was monitored to indicate target cells undergoing apoptosis using the CellEvent™ Caspase-3/7 Green Detection Reagent. The number of target cells was normalized to SKOV-3 cells cultured alone, and targets undergoing apoptosis were quantified based on caspase 3/7 activity.
The ability of GSK3 inhibition to enhance cytotoxicity of NK cells isolated directly from donors was assessed using in vitro killing assays. […] After the target cells were incubated with the differently treated NK cells for 4 hours, the respective percentage of specific killing (target cell lysis) was calculated. […]

K562 cells = assay: NK cell cytotoxicity assay, K562 target cells; assay type: cell-based; conditions: 4 hours; NK cells overnight 10 ng/mL IL-15 only or 7 day IL-15 + 5 μM CHIR99021
Procedure: as §1
The ability of GSK3 inhibition to enhance cytotoxicity of NK cells isolated directly from donors was assessed using in vitro killing assays. […] depleted PBMC population was treated overnight with 10 ng/mL IL-15 only (primed), or a 7 day culture combination of 10 ng/mL IL-15 and 5 μM CHIR99021. The target cells for the killing assays included K562 cells, CD20+ Raji cells, HER2+ SKOV3 cells and HER2+A549 cells. The E:T (Effector:Target) ratio applied to each assay ranged from 0.1, 0.5, 1, 5 to 10. After the target cells were incubated with the differently treated NK cells for 4 hours, the respective percentage of specific killing (target cell lysis) was calculated. […] Raji cells are less prone to NK mediated cytotoxicity.
The ability of STING agonist to enhance cytotoxicity of GSK3i multiday modulated NK cells was assessed using in vitro killing assays. […]

[1] = in both viable CD4+ population and viable CD8+ population
[2] = at least in viable CD8+ population

Compound | CD4 Hit (T cells) | CD8 Hit (T cells) | number or ratio of cells co-expressing CCR7 and CD62L (T cells; [1]) | number or ratio of cells co-expressing CCR7 and CD62L (T cells; [2]) | E:T50, Raji cells (CD20+ Raji cells) | E:T50 (E:T ratio when there is 50% of target cell lysis), K562 killing assay (K562 cells)
O=C(O)Cc1cc(I)c(Oc2ccc(O)c(I)c2)c(I)c1 [Tiratricol] | CD4 | CD8 | increased | – | – | –
CC[N+](C)(C)c1cccc(O)c1 [Edrophonium chloride] | – | CD8 | – | increased | – | –
C=CCc1cccc(/C=N/NC(=O)CN2CCN(Cc3ccccc3)CC2)c1O [PAC-1] | CD4 | – | – | increased | – | –
CCCc1c(-c2ccc(O)cc2)nn(-c2ccc(O)cc2)c1-c1ccc(O)cc1 [1,3,5-tris(4-hydroxyphenyl)-4-propyl-1H-pyrazole] | CD4 | – | – | increased | – | –
COc1ccc(-c2cc3nccn3c(Nc3ncccc3C(N)=O)n2)cc1OC [BAY 61-3606] | CD4 | – | – | increased | – | –
2-Naphthacenecarboxamide, 7-chloro-4-(dimethylamino)-1,4,4a,5,5a,6,11,12a-octahy | – | CD8 | – | increased | – | –
N#CC(=C(/N)Sc1ccccc1N)/C(C#N)=C(\N)Sc1ccccc1N [U0126] | CD4 | – | – | increased | – | –
CCCc1nc2c(C)cc(-c3nc4ccccc4n3C)cc2n1Cc1ccc(-c2ccccc2C(=O)O)cc1 [Telmisartan] | CD4 | – | – | increased | – | –
Oc1c(I)cc(Cl)c2cccnc12 [8-Quinolinol, 5-chloro-7-iodo-] | CD4 | CD8 | increased | – | – | –
CN[C@H]1CC[C@@H](c2ccc(Cl)c(Cl)c2)c2ccccc21 [Sertraline] | CD4 | CD8 | – | – | – | –
CC(C)(C)c1ccc(C(O)CCCN2CCC(C(O)(c3ccccc3)c3ccccc3)CC2)cc1 (stereo not shown) [Terfenadine] | CD4 | – | – | increased | – | –
C=CC1=C(C)c2cc3[nH]c(cc4nc(cc5[nH]c(cc1n2)c(C)c5CCC(=O)O)C(CCC(=O)O)=C4C)c(C)c3C=C [Protoporphyrin IX disodium] | CD4 | – | – | increased | – | –
C[C@]12CC[C@@H]3c4ccc(O)cc4C[C@@H](CCCCCCCCC[S+]([O-])CCCC(F)(F)C(F)(F)F)[C@H]3[C@@H]1CC[C@@H]2O (stereo partly shown) [Fulvestrant] | – | CD8 | – | increased | – | –
Oc1cccc(-c2nc(N3CCOCC3)c3oc4ncccc4c3n2)c1 [PI-103] | CD4 | CD8 | – | – | – | –
O=C(N/N=C/c1ccc([N+](=O)[O-])o1)c1ccc(O)cc1 [Nifuroxazide] | – | CD8 | – | increased | – | –
Oc1c(Cl)cc(Cl)c2cccnc12 [8-Quinolinol, 5,7-dichloro-] | CD4 | CD8 | increased | – | – | –
CCC(CO)Nc1nc(NCc2ccccc2)c2ncn(C(C)C)c2n1 (stereo in doubt) [Roscovitine, (S)-Isomer] | CD4 | – | – | increased | – | –
Sc1ncnc2nc[nH]c12 [6-Mercaptopurine] | CD4 | CD8 | increased | – | – | –
Nc1ncn([C@@H]2O[C@H](CO)[C@@H](O)[C@H]2O)c(=O)n1 [5-Azacytidine] | CD4 | CD8 | increased | – | – | –
N.S=C(S)N1CCCC1 [1-Pyrrolidinecarbodithioic acid, ammonium salt] | CD4 | – | – | increased | – | –
CC(C)C1CCC2(CO2)C2C(=O)OCC(C(=O)O)=CC12 (stereo not shown) [Heptelidic acid] | CD4 | CD8 | increased | – | – | –
COc1cc2nc(N3CCCN(C)CC3)nc(NC3CCN(Cc4ccccc4)CC3)c2cc1OC [BIX01294] | CD4 | – | – | increased | – | –
C/C=C(/C)C(=O)O[C@H]1C(C)=C2[C@H]([C@@H]1OC(=O)CCCCCCC)[C@@](C)(OC(C)=O)C[C@H](OC(=O)CCC)[C@@]1(O)[C@H]2OC(=O)[C@@]1(C)O [Thapsigargin] | – | CD8 | – | increased | – | –
CN(C)c1ccc(C=C2C(=O)Nc3ccccc32)cc1 [SU 4312] | – | CD8 | – | increased | – | –
CC[n+]1c(/C=C/C=C2/N(C)c3ccccc3C2(C)C)sc2ccccc21.[I-] [AC-93253 iodide] | CD4 | CD8 | increased | – | – | –
NC1CCN(c2nc3c(cc2F)c(=O)c(C(=O)O)cn3-c2ccc(F)cc2F)C1 (stereo not shown) [Tosufloxacin hydrochloride] | CD4 | – | – | increased | – | –
IL15: recombinant human IL-15, cytokine used alone as comparator culture (10 ng/mL) | – | – | – | – | ~100 | about 10
Diethylenetriaminepentaacetic acid, penta sodium | CD4 | CD8 | increased | – | – | –
